Results as given in paper PMC13046274, “Post-translational modifications of GlmR integrate metabolic and stress signals to maintain cell envelope homeostasis in Bacillus subtilis” (PLOS Genetics, 2026).

Key:
GlmR [1] = target: T1, GlmR (Bacillus subtilis, UniProt O06974); test: fluorescence titration of FITC-labeled GlmR, single-site fit; type: binding
T1 construct: gene mgfK; purified recombinant B. subtilis GlmR, FITC-labeled (pET28a, from E. coli)

GlmR [2] = target: T2, GlmR (Bacillus subtilis, UniProt O06974, T304A); test: fluorescence titration of FITC-labeled GlmR T304A, single-site fit; type: binding
T2 construct: gene mgfK; purified recombinant B. subtilis GlmR T304A, FITC-labeled (pET28a, from E. coli)
T2 sequence (O06974 whole entry T304A): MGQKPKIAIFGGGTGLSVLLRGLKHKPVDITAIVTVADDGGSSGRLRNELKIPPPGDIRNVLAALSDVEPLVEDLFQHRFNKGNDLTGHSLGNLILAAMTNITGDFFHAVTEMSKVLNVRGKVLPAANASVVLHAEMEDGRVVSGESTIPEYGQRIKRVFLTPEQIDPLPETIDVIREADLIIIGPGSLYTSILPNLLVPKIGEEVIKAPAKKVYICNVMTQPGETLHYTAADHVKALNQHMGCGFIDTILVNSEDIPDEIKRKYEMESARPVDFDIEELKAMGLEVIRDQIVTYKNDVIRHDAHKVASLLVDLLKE

T1 sequence (O06974 whole entry): as the sequence (O06974 whole entry T304A) above, with A304T counted along it

## CC(=O)N[C@H]1[C@@H](OP(=O)(O)OP(=O)(O)OC[C@H]2O[C@@H](n3ccc(=O)[nH]c3=O)[C@H](O)[C@@H]2O)O[C@H](CO)[C@@H](O)[C@@H]1O [UDP-GlcNAc]
GlmR [1]
  Kd: 280 ± 40 µM
GlmR [2]
  Kd: 1670 ± 310 µM
